# According to article PMC4848495, “Identification of a Potent and Broad-Spectrum Hepatitis C Virus Fusion Inhibitory Peptide from the E2 Stem Domain” (Scientific Reports, 2016):
# Molecular target: HCV glycoprotein E1E2-mediated membrane fusion (Hepatitis C virus genotype 1a, UniProt P27958)
# Assay: cell-based
# Assay type: cell-based, Hepatitis C virus (strain H77)
# Details: Cre/stop fusion system, peptide 1 µM, luciferase divided by solvent control (0.5% DMSO)
# Sequence of HCV glycoprotein E1E2-mediated membrane fusion (P27958 384-746): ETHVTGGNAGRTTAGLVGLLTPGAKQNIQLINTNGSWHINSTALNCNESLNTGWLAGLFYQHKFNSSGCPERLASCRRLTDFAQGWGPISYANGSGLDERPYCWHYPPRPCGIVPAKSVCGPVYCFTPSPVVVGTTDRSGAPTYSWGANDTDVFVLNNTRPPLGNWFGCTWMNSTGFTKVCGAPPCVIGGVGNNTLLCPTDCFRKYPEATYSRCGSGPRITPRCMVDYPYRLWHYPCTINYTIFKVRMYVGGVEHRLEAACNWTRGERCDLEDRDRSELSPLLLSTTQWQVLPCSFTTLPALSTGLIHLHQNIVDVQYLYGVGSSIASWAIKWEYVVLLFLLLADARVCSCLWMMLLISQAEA
# Sequence of HCV glycoprotein E1E2-mediated membrane fusion (P27958 192-383): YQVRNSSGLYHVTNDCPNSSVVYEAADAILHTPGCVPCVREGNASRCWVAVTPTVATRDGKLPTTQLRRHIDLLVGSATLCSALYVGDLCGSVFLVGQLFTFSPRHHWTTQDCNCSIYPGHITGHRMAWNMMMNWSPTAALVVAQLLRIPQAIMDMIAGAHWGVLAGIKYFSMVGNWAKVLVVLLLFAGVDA
row,Compound,% of fusion
1,"P TDCF RKHP EATY TKC GS GP W LTP RCLV HY [HCV-27, 30-mer of overlapping E1E2 peptide library]",65.1%
2,"P YRLWHYP CTVNFTIFKVRMYVGGVEHRLE [HCV-29, 30-mer of overlapping E1E2 peptide library]",83.2%
3,"PPCNIGGI GNKTLTCP TDCFRKHP EATYTK [HCV-26, 30-mer of overlapping E1E2 peptide library]",121.6%
4,"QAVVDMVAGAHWGVLAGLAYYSMVGNWAKV [HCV-11, 30-mer of overlapping E1E2 peptide library]",121.6%
5,"RCWVALTP TLAARNASVP TTTIRRHVDLLV [HCV-4, 30-mer of overlapping E1E2 peptide library]",85.2%
6,"RDRS ELS P LLLS TTEW QV LP CS F TTLP ALS [HCV-32, 30-mer of overlapping E1E2 peptide library]",11 . 2%
7,"RHETVQDCNCSIYP GHVTGHRMAWDMMMNW [HCV-8, 30-mer of overlapping E1E2 peptide library]",76.9%
8,"RP CGIVP AAQVC GP VYCFTP SPVVVGTTDR [HCV-21, 30-mer of overlapping E1E2 peptide library]",63.7%
9,"SHSSDQRP YCWHYAP RP CGI VP AAQVC GP V [HCV-20, 30-mer of overlapping E1E2 peptide library]",65.8%
10,"SLNTGFLAALFYVHKFNSSGCPERMASCSP [HCV-17, 30-mer of overlapping E1E2 peptide library]",66.7%
11,"SP TAALVVSQLLRIP QAVVDMVAGAHWGVL [HCV-10, 30-mer of overlapping E1E2 peptide library]",78.8%
12,"SVP TTTIRRHVDLLV GAAALC SAMYVGDLC [HCV-5, 30-mer of overlapping E1E2 peptide library]",84.7%
13,"TGLIHLHQNVVDVQYLYGI GSAVVSFAIKW [HCV-34, 30-mer of overlapping E1E2 peptide library]",24.9%
14,"VTGGTM AKNTLGI TSLFSP GSSQKIQLVNT [HCV-14, 30-mer of overlapping E1E2 peptide library]",69.6%
15,"WQVLP CSFTTLP ALS TGLIHLHQNVVDVQY [HCV-33, 30-mer of overlapping E1E2 peptide library]",9.7%
16,"YCFTP SPVVVGTTDRF GVP TYSWGENETDV [HCV-22, 30-mer of overlapping E1E2 peptide library]",79.0%
17,"YEVRNVSGVYHVTNDCSNAS IVYEAADMIM [HCV-1, 30-mer of overlapping peptide library covering full-length E1E2 of HCV strain H77]",56.4%

# Tested on: HCVcc (Jc1-luc)
# Assay: not given
# Details: Huh7.5.1 cells, various concentration ratios, CalcuSyn
row,Compound,effect on inhibition of HCV infection in combination with E27
1,NC(=O)c1ncn([C@@H]2O[C@H](CO)[C@@H](O)[C@H]2O)n1 [Ribavirin],slightly synergistic trend
2,COc1ccc2c(O[C@@H]3C[C@H]4C(=O)N[C@]5(C(=O)NS(=O)(=O)C6CC6)C[C@H]5/C=C\CCCCN(C)C(=O)[C@@H]4C3)cc(-c3nc(C(C)C)cs3)nc2c1C [Simeprevir],slight antagonism
3,CC(C)OC(=O)[C@H](C)N[P@](=O)(OC[C@H]1O[C@@H](n2ccc(=O)[nH]c2=O)[C@](C)(F)[C@@H]1O)Oc1ccccc1 [Sofosbuvir],slight antagonism
4,CCC[C@H](NC(=O)[C@@H]1[C@H]2CCC[C@H]2CN1C(=O)[C@@H](NC(=O)[C@@H](NC(=O)c1cnccn1)C1CCCCC1)C(C)(C)C)C(=O)C(=O)NC1CC1 [Telaprevir],slightly synergistic trend
